The kinase profiling compilation of Christmann-Franck et al. (2016)

Assays:
Assay in all cases: radiometric filter-binding kinase assay, Kinase HotSpot
Conditions in all cases: compound 0.5 µM; ATP 10 µM
[1] = target: IKBKB (human) (UniProt O14920)
[2] = target: FRK (human) (UniProt P42685)
[3] = target: MAP3K14 (human) (UniProt Q99558)
[4] = target: GRK7 (human) (UniProt Q8WTQ7)
[5] = target: ULK2 (human) (UniProt Q8IYT8)
[6] = target: NEK2 (human) (UniProt P51955)
[7] = target: AKT3 (human) (UniProt Q9Y243)
[8] = target: TYRO3 (human) (UniProt Q06418)
[9] = target: BLK (human) (UniProt P51451)
[10] = target: PRKD1 (human) (UniProt Q15139)
[11] = target: PAK1 (human) (UniProt Q13153)
[12] = target: STK16 (human) (UniProt O75716)
[13] = target: FER (human) (UniProt P16591)
[14] = target: CAMK4 (human) (UniProt Q16566)
[15] = target: TEK (human) (UniProt Q02763)
[16] = target: HIPK2 (human) (UniProt Q9H2X6)
[17] = target: LRRK2 (human) (UniProt Q5S007)
LRRK2 (human), sequence (Q5S007 whole entry, looked up): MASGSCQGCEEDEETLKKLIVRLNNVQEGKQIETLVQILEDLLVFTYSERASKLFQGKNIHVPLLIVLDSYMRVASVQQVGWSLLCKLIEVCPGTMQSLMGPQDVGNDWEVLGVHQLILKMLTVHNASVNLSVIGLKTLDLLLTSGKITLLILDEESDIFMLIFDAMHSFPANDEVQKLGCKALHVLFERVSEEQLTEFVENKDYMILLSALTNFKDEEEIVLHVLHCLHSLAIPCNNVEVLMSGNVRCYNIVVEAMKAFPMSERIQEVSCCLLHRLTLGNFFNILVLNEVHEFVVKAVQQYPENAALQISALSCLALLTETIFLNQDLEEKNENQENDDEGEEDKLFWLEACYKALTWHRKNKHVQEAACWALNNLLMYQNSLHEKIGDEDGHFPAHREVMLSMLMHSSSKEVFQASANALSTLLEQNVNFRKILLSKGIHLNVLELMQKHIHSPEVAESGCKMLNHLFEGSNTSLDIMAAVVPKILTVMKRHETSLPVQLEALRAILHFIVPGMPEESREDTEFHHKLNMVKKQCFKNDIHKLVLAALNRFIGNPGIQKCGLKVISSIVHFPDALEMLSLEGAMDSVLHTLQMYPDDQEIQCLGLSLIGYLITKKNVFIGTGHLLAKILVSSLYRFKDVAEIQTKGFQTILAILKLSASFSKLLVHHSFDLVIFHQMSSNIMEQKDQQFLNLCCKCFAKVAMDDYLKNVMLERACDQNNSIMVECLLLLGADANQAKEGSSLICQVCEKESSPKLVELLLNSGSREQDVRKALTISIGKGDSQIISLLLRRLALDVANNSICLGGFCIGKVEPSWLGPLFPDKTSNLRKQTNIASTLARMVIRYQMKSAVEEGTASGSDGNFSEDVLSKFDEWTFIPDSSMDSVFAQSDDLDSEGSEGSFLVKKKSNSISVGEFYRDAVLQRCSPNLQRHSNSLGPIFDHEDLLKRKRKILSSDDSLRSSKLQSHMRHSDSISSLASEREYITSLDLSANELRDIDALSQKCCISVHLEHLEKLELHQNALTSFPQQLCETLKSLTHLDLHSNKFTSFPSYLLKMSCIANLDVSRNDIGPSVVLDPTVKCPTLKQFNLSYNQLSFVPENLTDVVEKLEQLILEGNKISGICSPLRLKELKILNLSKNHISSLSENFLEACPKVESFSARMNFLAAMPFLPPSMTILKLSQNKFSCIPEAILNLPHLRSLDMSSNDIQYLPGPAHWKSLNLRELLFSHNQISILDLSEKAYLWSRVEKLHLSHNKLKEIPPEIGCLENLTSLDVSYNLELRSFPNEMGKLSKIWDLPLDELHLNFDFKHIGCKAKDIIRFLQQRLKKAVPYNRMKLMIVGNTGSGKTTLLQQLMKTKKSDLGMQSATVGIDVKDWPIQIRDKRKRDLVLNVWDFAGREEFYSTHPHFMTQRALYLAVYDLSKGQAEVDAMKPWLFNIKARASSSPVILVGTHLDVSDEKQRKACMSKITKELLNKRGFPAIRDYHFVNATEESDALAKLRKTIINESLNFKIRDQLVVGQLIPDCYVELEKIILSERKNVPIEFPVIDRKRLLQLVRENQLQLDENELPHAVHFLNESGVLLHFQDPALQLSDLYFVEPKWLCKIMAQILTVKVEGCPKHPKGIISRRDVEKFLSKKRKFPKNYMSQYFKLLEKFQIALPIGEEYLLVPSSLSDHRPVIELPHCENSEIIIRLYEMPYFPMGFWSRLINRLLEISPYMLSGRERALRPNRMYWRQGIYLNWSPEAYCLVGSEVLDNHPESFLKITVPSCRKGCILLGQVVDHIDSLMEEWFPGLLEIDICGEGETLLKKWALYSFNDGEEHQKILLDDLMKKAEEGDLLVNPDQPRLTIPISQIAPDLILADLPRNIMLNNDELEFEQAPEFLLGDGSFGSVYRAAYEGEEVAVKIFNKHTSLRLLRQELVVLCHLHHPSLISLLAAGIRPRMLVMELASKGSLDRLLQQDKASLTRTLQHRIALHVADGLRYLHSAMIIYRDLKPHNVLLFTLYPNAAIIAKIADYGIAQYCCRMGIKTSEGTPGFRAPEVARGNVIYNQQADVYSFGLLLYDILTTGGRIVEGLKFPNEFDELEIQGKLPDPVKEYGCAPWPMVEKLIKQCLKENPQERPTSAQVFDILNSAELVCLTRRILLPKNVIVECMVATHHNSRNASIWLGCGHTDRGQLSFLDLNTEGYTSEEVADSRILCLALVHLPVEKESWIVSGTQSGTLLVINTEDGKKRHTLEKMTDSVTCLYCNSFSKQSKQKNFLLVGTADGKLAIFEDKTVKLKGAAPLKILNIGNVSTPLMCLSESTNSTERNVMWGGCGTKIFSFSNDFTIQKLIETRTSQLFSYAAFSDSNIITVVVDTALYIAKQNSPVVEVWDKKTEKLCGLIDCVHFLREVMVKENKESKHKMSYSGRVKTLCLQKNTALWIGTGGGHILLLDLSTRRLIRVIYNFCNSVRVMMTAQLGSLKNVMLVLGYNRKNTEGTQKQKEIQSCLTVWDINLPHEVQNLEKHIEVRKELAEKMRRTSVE

[18] = target: SRPK3 (human) (UniProt Q9UPE1)
[19] = target: MAP2K1 (human) (UniProt Q02750)
MAP2K1 (human), sequence (Q02750 whole entry, looked up): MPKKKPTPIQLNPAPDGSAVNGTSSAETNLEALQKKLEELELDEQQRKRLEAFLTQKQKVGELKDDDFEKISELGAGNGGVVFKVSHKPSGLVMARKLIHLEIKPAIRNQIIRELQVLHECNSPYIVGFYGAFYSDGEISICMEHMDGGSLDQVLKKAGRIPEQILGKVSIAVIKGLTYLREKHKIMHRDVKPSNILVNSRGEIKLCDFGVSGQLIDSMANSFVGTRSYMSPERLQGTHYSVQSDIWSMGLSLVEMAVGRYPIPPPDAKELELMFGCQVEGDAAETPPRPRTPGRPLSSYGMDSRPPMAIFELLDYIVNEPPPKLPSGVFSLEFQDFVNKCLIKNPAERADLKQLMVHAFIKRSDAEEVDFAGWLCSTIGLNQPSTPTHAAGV

[20] = target: GRK4 (human) (UniProt P32298)
[21] = target: CAMK1G (human) (UniProt Q96NX5)
[22] = target: MST4 (human) (UniProt Q9P289)
[23] = target: RPS6KB2 (human) (UniProt Q9UBS0)
[24] = target: NEK7 (human) (UniProt Q8TDX7)
[25] = target: CAMKK1 (human) (UniProt Q8N5S9)
[26] = target: TAOK3 (human) (UniProt Q9H2K8)
[27] = target: RPS6KB1 (human) (UniProt P23443)
[28] = target: ACVRL1 (human) (UniProt P37023)
[29] = target: PDGFRB (human) (UniProt P09619)
[30] = target: CDC42BPB (human) (UniProt Q9Y5S2)
[31] = target: TAOK2 (human) (UniProt Q9UL54)
[32] = target: MAPKAPK5 (human) (UniProt Q8IW41)
[33] = target: STK11 (human) (UniProt Q15831)
[34] = target: LCK (human) (UniProt P06239)
[35] = target: HIPK4 (human) (UniProt Q8NE63)
[36] = target: CDK1 CCNB1 (human) (UniProt P06493+P14635)
[37] = target: FGFR2 (human) (UniProt P21802)
[38] = target: CDK6 CCND3 (human) (UniProt P30281+Q00534)
[39] = target: CLK2 (human) (UniProt P49760)
[40] = target: MAP3K9 (human) (UniProt P80192)
MAP3K9 (human), sequence (P80192 whole entry, looked up): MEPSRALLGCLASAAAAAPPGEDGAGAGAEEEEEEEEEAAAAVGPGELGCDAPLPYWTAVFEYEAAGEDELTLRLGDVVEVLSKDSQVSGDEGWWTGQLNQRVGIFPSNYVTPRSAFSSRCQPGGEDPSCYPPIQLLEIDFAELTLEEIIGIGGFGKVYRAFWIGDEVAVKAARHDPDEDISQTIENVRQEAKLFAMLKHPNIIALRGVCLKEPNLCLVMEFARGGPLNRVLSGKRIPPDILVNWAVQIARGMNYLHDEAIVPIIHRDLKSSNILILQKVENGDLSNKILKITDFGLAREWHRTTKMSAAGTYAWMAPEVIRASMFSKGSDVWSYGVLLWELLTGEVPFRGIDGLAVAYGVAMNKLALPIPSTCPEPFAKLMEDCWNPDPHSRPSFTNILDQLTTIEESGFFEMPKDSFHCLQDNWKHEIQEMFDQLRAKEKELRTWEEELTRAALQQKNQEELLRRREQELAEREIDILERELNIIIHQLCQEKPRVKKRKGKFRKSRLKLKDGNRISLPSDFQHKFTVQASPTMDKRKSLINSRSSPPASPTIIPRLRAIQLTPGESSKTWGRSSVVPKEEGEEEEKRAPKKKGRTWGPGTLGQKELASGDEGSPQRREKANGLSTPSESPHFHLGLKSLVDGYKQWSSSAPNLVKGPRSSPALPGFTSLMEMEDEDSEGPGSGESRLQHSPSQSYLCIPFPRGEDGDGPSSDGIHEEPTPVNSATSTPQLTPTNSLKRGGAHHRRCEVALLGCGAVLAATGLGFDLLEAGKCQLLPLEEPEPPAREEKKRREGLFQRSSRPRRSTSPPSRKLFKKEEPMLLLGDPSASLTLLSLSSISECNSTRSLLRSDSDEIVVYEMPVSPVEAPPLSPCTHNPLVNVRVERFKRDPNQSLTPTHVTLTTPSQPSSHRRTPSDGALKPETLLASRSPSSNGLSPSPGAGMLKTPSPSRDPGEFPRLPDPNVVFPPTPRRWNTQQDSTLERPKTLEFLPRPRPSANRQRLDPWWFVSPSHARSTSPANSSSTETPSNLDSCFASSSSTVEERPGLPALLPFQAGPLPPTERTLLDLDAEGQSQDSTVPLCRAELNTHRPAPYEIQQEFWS

[41] = target: ABL2 (human) (UniProt P42684)
[42] = target: STK3 (human) (UniProt Q13188)

FRK (human), sequence (P42685 whole entry, looked up): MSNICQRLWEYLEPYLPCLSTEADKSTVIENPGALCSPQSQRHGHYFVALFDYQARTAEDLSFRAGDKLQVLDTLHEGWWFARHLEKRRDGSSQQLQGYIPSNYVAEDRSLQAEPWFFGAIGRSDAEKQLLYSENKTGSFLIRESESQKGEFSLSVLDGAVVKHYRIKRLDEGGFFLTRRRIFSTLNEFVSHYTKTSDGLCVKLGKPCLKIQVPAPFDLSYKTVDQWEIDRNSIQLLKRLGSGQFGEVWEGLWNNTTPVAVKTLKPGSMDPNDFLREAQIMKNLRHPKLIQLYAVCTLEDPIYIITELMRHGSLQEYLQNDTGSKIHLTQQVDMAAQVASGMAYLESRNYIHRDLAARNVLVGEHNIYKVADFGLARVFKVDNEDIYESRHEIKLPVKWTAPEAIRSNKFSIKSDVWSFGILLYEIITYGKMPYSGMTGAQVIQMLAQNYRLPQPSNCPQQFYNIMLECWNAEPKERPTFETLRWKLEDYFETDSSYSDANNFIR
GRK7 (human), sequence (Q8WTQ7 whole entry, looked up): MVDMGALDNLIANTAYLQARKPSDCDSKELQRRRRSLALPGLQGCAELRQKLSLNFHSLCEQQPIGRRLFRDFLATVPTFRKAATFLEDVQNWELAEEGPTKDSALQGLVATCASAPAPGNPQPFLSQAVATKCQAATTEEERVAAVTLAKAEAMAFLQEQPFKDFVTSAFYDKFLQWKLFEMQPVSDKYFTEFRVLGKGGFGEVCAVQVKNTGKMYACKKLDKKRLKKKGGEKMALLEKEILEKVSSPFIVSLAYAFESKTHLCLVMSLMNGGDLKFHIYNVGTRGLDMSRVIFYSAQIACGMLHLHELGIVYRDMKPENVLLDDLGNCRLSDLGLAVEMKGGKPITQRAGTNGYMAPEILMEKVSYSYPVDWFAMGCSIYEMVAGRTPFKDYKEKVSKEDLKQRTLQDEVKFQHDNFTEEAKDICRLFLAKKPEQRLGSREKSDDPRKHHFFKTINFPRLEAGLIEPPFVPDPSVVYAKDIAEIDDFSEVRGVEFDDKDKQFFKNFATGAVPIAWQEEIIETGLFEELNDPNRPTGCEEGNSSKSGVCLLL

Molecule `N#C/C(=C\c1ccc(O)c(O)c1)C(=O)NCc1ccccc1` has a residual activity [1] of 103%, a residual activity [2] of 97.4% and a residual activity [3] of 109%. It also gave a residual activity [4] of 103%, a residual activity [5] of 106% and a residual activity [6] of 102%. For the same molecule, the residual activity [7] was 90.8%, the residual activity [8] was 109% and the residual activity [9] was 95.6%. For the same molecule, the residual activity [10] was 92.5%, the residual activity [11] was 97.7% and the residual activity [12] was 99.1%. The residual activity [13] was 86.2%, the residual activity [14] was 97% and the residual activity [15] was 95.1%. It also gave a residual activity [16] of 101%, a residual activity [17] of 101% and a residual activity [18] of 93.9%. It also gave a residual activity [19] of 94%, a residual activity [20] of 101% and a residual activity [21] of 98.7%. It also gave a residual activity [22] of 103%, a residual activity [23] of 94.7% and a residual activity [24] of 111%. The residual activity [25] was 102%, the residual activity [26] was 103% and the residual activity [27] was 92.8%. It also gave a residual activity [28] of 106%, a residual activity [29] of 100% and a residual activity [30] of 103%. For the same molecule, the residual activity [31] was 95.7%, the residual activity [32] was 94.2% and the residual activity [33] was 97.4%. For the same molecule, the residual activity [34] was 95.7%, the residual activity [35] was 106% and the residual activity [36] was 96.9%. For the same molecule, the residual activity [37] was 98.1%, the residual activity [38] was 104% and the residual activity [39] was 110%. The residual activity [40] was 95.5% and the residual activity [41] was 93.4%.

In the case of `C[C@@H]1CCN(C(=O)CC#N)C[C@@H]1N(C)c1ncnc2[nH]ccc12`, the residual activity [1] is reported as 88.2%, the residual activity [2] is reported as 106% and the residual activity [3] is reported as 107%. For the same molecule, the residual activity [4] was 102%, the residual activity [5] was 92% and the residual activity [6] was 103%. For the same molecule, the residual activity [7] was 85.8%, the residual activity [8] was 103% and the residual activity [10] was 97.3%. The residual activity [11] was 108%, the residual activity [12] was 94.7% and the residual activity [13] was 104%. The residual activity [14] was 96.3%, the residual activity [15] was 96.6% and the residual activity [16] was 96.9%. It also gave a residual activity [17] of 51.3%, a residual activity [18] of 103% and a residual activity [19] of 112%. It also gave a residual activity [20] of 93.5%, a residual activity [21] of 97.8% and a residual activity [22] of 105%. The residual activity [23] was 100%, the residual activity [25] was 101% and the residual activity [26] was 94.9%. It also gave a residual activity [27] of 103%, a residual activity [28] of 100% and a residual activity [42] of 85.8%. The residual activity [30] was 95.4%, the residual activity [31] was 100% and the residual activity [32] was 97.3%. For the same molecule, the residual activity [33] was 104%, the residual activity [34] was 80.2% and the residual activity [35] was 96.2%. For the same molecule, the residual activity [36] was 90.8%, the residual activity [37] was 91.7% and the residual activity [38] was 110%. It also gave a residual activity [39] of 85.8%, a residual activity [40] of 113% and a residual activity [41] of 90.5%.
